Patent US9738591B2, “Antimicrobial compounds” (priority 2009, dated 2017)
Values after ≈ are worked out from the molar mass of the structure shown. Where two headings read alike, the source gives them in different places.

Key:
[1] = tested on: Klebsiella edwardsii NCTC 10896; test: Disk diffusion; format: cell-based; conditions: 10 mg/ml, 20 μl
S. aureus ATCC 29213 = test: MIC and MBC by broth microdilution; format: cell-based; conditions: Staphylococcus aureus, ATCC29213, CA-MHB, two independent replicates
Description: (§1) The method used was based on CLSI protocols for broth microdilution testing of these species. As recommended by CLSI, inocula were prepared by direct colony suspension, and the media used were cation-adjusted Mueller Hinton broth (CA-MHB) for Staphylococcus spp. and CA-MHB containing 5% lysed horse blood (CA-MHB+LHB) for Streptococcus spp. Briefly, 24 h blood agar plate (BA) cultures of Staphylococcus aureus strains NCTC 6571, ATCC 29213, ATCC 33592 (MRSA) and NCTC 10442 (MRSA), Staphylococcus epidermidis ATCC 29971, Staphylococcus xylosus ATCC 29971, Streptococcus pneumoniae strains ATCC 49619 and ATCC 6305, and Streptococcus pyogenes strains NCTC 8191 and NCTC 8302 were used to prepare 0.5 McFarland suspensions in saline. Two 640 μg/ml working stocks of TSB007 were prepared from a fresh master stock, one in CA-MHB for testing against the Staphylococcus spp. and the other in CA-MHB+LHB for testing against Streptococcus spp. The working stocks were further diluted 1/10 in these broths for adding to microtitre trays to test MICs of 32, 16, 8, 4, 2, 1, 0.5, 0.25, 0.125 and 0.06 μg/ml.
(§2) The wells of two 96-well microtitre trays (one for Staphylococcus spp. and one for Streptococcus spp.) were filled with 100 μl of the appropriate broth, except for the first column. The last column, a sterility control containing no TSB007 or inoculum, was filled with an additional 100 μl broth. Then 100 μl of the 64 μg/ml TSB007 solution was added to the first two columns, the contents of column 2 was mixed, then 100 μl of this was used in two-fold serial dilutions along the rest of the tray except the last two columns. The final 100 μl was discarded. […] Finally, to the first 11 wells of one row per strain, 100 μl of a 10^−2 dilution (in the appropriate broth) of the 0.5 McFarland suspension was added. The microtitre trays were then incubated at 35° C. for 24 h before the MICs were read visually. Wells were further subcultured (10 μl drop onto BA then incubated at 35° C. for 24 h) and colonies subsequently counted to determine minimum bactericidal concentrations (MBCs). The concentration of the initial inoculum was confirmed on BA by counting colonies from 2×10 μl spots of 10^−5 dilutions of the 0.5 McFarland suspensions. Testing was performed on two separate occasions.

[2] = tested on: S. aureus ATCC 33592 (MRSA); test: MIC and MBC by broth microdilution; format: cell-based; conditions: Staphylococcus aureus, CA-MHB, two independent replicates
Description: as §1, §2

[3] = tested on: S. aureus NCTC 10442 (MRSA); test: MIC and MBC by broth microdilution; format: cell-based; conditions: Staphylococcus aureus, CA-MHB, two independent replicates
Description: as §1, §2

S. aureus NCTC 6571 = test: MIC and MBC by broth microdilution; format: cell-based; conditions: Staphylococcus aureus, NCTC6571, CA-MHB, two independent replicates
Description: as §1, §2

S. pneumoniae ATCC 49619 = test: MIC and MBC by broth microdilution; format: cell-based; conditions: Streptococcus pneumoniae, ATCC49619, CA-MHB+LHB, two independent replicates
Description: as §1, §2

S. pneumoniae ATCC 6305 = test: MIC and MBC by broth microdilution; format: cell-based; conditions: Streptococcus pneumoniae, ATCC6305, CA-MHB+LHB, two independent replicates
Description: as §1, §2

S. pyogenes NCTC 8191 = test: MIC and MBC by broth microdilution; format: cell-based; conditions: Streptococcus pyogenes, NCTC8191, CA-MHB+LHB, two independent replicates
Description: as §1, §2

S. pyogenes NCTC 8302 = test: MIC and MBC by broth microdilution; format: cell-based; conditions: Streptococcus pyogenes, NCTC8302, CA-MHB+LHB, two independent replicates
Description: as §1, §2

S. xylosus ATCC 29971 = test: MIC and MBC by broth microdilution; format: cell-based; conditions: Staphylococcus xylosus, ATCC29971, CA-MHB, two independent replicates
Description: as §1, §2

[4] = tested on: Staphylococcus epidermidis ATCC 12228; test: Disk diffusion; conditions: for zone of inhibition at 10000 µg/mL: Staphylococcus epidermidis

O=C(O)c1ccc(/C=C/c2cc(/C=C/c3ccc(C(=O)O)cc3)cc(/C=C/c3ccc(C(=O)O)cc3)c2)cc1 [TSB007]
Zone diameters, Repeat Results [1]: 9 trim | MIC (S. aureus ATCC 29213; 35° C., 24 h): 4 µg/mL (≈ 7.74 µM) | MBC (S. aureus ATCC 29213): > 32 µg/mL | MIC ([2]; 35° C., 24 h): 2 to 4 µg/mL (≈ 3.87 to 7.74 µM) | MBC [2]: > 32 µg/mL | MIC ([3]; 35° C., 24 h): 2 to 4 µg/mL (≈ 3.87 to 7.74 µM) | MBC [3]: > 32 µg/mL | MIC (S. aureus NCTC 6571; 35° C., 24 h): 2 to 4 µg/mL (≈ 3.87 to 7.74 µM) | MBC (S. aureus NCTC 6571): > 32 µg/mL | MIC (S. pneumoniae ATCC 49619; 35° C., 24 h): 32 µg/mL (≈ 61.9 µM) | MBC (S. pneumoniae ATCC 49619): > 32 µg/mL | MIC (S. pneumoniae ATCC 6305; 35° C., 24 h): > 32 µg/mL | MBC (S. pneumoniae ATCC 6305): > 32 µg/mL | MIC (S. pyogenes NCTC 8191; 35° C., 24 h): > 32 µg/mL | MBC (S. pyogenes NCTC 8191): > 32 µg/mL | MIC (S. pyogenes NCTC 8302; 35° C., 24 h): > 32 µg/mL | MBC (S. pyogenes NCTC 8302): > 32 µg/mL | MIC (S. xylosus ATCC 29971; 35° C., 24 h): 8 to 16 µg/mL (≈ 15.5 to 31 µM) | MBC (S. xylosus ATCC 29971): 8 to 16 µg/mL (≈ 15.5 to 31 µM) | Zone diameters, 24 h TSB007 ([4]; 10 mg/ml, 20 μl, 24 h): 22 trim | Zone diameters, 48 h TSB007 ([4]; 10 mg/ml, 20 μl, 48 h): 22 trim | Zone diameters, Repeat Results ([4]; 10 mg/ml, 20 μl, repeat): 20 trim | zone of inhibition at 10000 µg/mL ([4]; ATCC12228, 24 h, read-out: Zone diameters, 24 h AnO2): 22 mm | zone of inhibition at 10000 µg/mL ([4]; ATCC12228, 24 h, read-out: Zone diameters, 24 h O2): 18 mm | zone of inhibition at 10000 µg/mL ([4]; ATCC12228, 48 h, read-out: Zone diameters, 48 h AnO2): 22 mm | zone of inhibition at 10000 µg/mL ([4]; ATCC12228, 48 h, read-out: Zone diameters, 48 h O2): 18 mm
